Experimental data reported in ChEMBL document CHEMBL2203015, “Synthesis and biological evaluation of 5-aryloxypyrazole derivatives bearing a rhodanine-3-aromatic acid as potential antimicrobial agents” (Bioorg Med Chem Lett, 2012).
Values after ≈ are worked out from the molar mass of the structure shown.

How the values were obtained:
Type in all cases: functional
Staphylococcus aureus [1] = assay: Antibacterial activity against quinolone-resistant Staphylococcus aureus CCARM 3519 incubated for 24 hrs serial dilution method; conditions: CCARM 3519, 24 h
Staphylococcus aureus [2] = assay: Antibacterial activity against quinolone-resistant Staphylococcus aureus CCARM 3505 incubated for 24 hrs serial dilution method; conditions: CCARM 3505, 24 h
Staphylococcus aureus [3] = assay: Antibacterial activity against multidrug-resistant Staphylococcus aureus CCARM 3506 incubated for 24 hrs serial dilution method; conditions: CCARM 3506, 24 h
Staphylococcus aureus [4] = assay: Antibacterial activity against multidrug-resistant Staphylococcus aureus CCARM 3167 incubated for 24 hrs serial dilution method; conditions: CCARM 3167, 24 h
Escherichia coli = assay: Antibacterial activity against Escherichia coli 1356 incubated for 24 hrs serial dilution method; conditions: Escherichia coli, 1356, 24 h
Staphylococcus aureus [5] = assay: Antibacterial activity against Staphylococcus aureus KCTC 503 incubated for 24 hrs serial dilution method; conditions: KCTC 503, 24 h
Staphylococcus aureus [6] = assay: Antibacterial activity against Staphylococcus aureus KCTC 209 incubated for 24 hrs serial dilution method; conditions: KCTC 209, 24 h
Staphylococcus aureus [7] = assay: Antibacterial activity against Staphylococcus aureus RN 4220 incubated for 24 hrs serial dilution method; conditions: RN 4220, 24 h

SMILES	MIC (Staphylococcus aureus [1])	MIC (Staphylococcus aureus [2])	MIC (Staphylococcus aureus [3])	MIC (Staphylococcus aureus [4])	MIC (Escherichia coli)	MIC (Staphylococcus aureus [5])	MIC (Staphylococcus aureus [6])	MIC (Staphylococcus aureus [7])
Cc1nn(-c2ccccc2)c(Oc2cccc(Cl)c2)c1/C=C1\SC(=S)N([C@@H](Cc2c[nH]c3ccccc23)C(=O)O)C1=O	4 µg/mL (≈ 6.5 µM)	4 µg/mL (≈ 6.5 µM)	4 µg/mL (≈ 6.5 µM)	2 µg/mL (≈ 3.25 µM)	> 64 µg/mL	> 64 µg/mL	> 64 µg/mL	4 µg/mL (≈ 6.5 µM)
Cc1nn(-c2ccccc2)c(Oc2ccc(Br)cc2)c1/C=C1\SC(=S)N([C@@H](Cc2ccc(O)cc2)C(=O)O)C1=O	8 µg/mL (≈ 12.6 µM)	8 µg/mL (≈ 12.6 µM)	8 µg/mL (≈ 12.6 µM)	8 µg/mL (≈ 12.6 µM)	> 64 µg/mL	> 64 µg/mL	> 64 µg/mL	8 µg/mL (≈ 12.6 µM)
Cc1nn(-c2ccccc2)c(Oc2cccc(Cl)c2)c1/C=C1\SC(=S)N([C@@H](Cc2ccc(O)cc2)C(=O)O)C1=O	16 µg/mL (≈ 27 µM)	32 µg/mL (≈ 54 µM)	16 µg/mL (≈ 27 µM)	8 µg/mL (≈ 13.5 µM)	> 64 µg/mL	> 64 µg/mL	> 64 µg/mL	16 µg/mL (≈ 27 µM)
Cc1nn(-c2ccccc2)c(Oc2ccccc2Cl)c1/C=C1\SC(=S)N([C@@H](Cc2ccc(O)cc2)C(=O)O)C1=O	–	–	–	–	> 64 µg/mL	> 64 µg/mL	> 64 µg/mL	> 32 µg/mL
Cc1cccc(Oc2c(/C=C3\SC(=S)N([C@@H](Cc4ccc(O)cc4)C(=O)O)C3=O)c(C)nn2-c2ccccc2)c1	16 µg/mL (≈ 28 µM)	16 µg/mL (≈ 28 µM)	8 µg/mL (≈ 14 µM)	16 µg/mL (≈ 28 µM)	> 64 µg/mL	> 64 µg/mL	> 64 µg/mL	16 µg/mL (≈ 28 µM)
Cc1nn(-c2ccccc2)c(Oc2ccc3ccccc3c2)c1/C=C1\SC(=S)N([C@@H](Cc2c[nH]c3ccccc23)C(=O)O)C1=O	2 µg/mL (≈ 3.17 µM)	2 µg/mL (≈ 3.17 µM)	2 µg/mL (≈ 3.17 µM)	2 µg/mL (≈ 3.17 µM)	> 64 µg/mL	> 64 µg/mL	> 64 µg/mL	2 µg/mL (≈ 3.17 µM)
Cc1nn(-c2ccccc2)c(Oc2ccc(F)cc2)c1/C=C1\SC(=S)N([C@@H](Cc2c[nH]c3ccccc23)C(=O)O)C1=O	8 µg/mL (≈ 13.4 µM)	8 µg/mL (≈ 13.4 µM)	4 µg/mL (≈ 6.68 µM)	4 µg/mL (≈ 6.68 µM)	> 64 µg/mL	> 64 µg/mL	> 64 µg/mL	8 µg/mL (≈ 13.4 µM)
Cc1nn(-c2ccccc2)c(Oc2c(Cl)cccc2Cl)c1/C=C1\SC(=S)N([C@@H](Cc2ccc(O)cc2)C(=O)O)C1=O	16 µg/mL (≈ 25.5 µM)	16 µg/mL (≈ 25.5 µM)	8 µg/mL (≈ 12.8 µM)	8 µg/mL (≈ 12.8 µM)	> 64 µg/mL	> 64 µg/mL	> 64 µg/mL	16 µg/mL (≈ 25.5 µM)
Cc1ccc(Oc2c(/C=C3\SC(=S)N([C@@H](Cc4ccc(O)cc4)C(=O)O)C3=O)c(C)nn2-c2ccccc2)cc1	16 µg/mL (≈ 28 µM)	16 µg/mL (≈ 28 µM)	8 µg/mL (≈ 14 µM)	8 µg/mL (≈ 14 µM)	> 64 µg/mL	> 64 µg/mL	> 64 µg/mL	16 µg/mL (≈ 28 µM)
CCn1cc(C(=O)O)c(=O)c2cc(F)c(N3CCNCC3)cc21 [NORFLOXACIN]	> 64 µg/mL	> 64 µg/mL	4 µg/mL (≈ 12.5 µM)	8 µg/mL (≈ 25.1 µM)	> 16 µg/mL	2 µg/mL (≈ 6.26 µM)	2 µg/mL (≈ 6.26 µM)	2 µg/mL (≈ 6.26 µM)
Cc1onc(-c2ccccc2)c1C(=O)N[C@@H]1C(=O)N2[C@@H]1SC(C)(C)[C@@H]2C(=O)O [OXACILLIN]	1 µg/mL (≈ 2.49 µM)	1 µg/mL (≈ 2.49 µM)	> 64 µg/mL	> 64 µg/mL	> 64 µg/mL	1 µg/mL (≈ 2.49 µM)	1 µg/mL (≈ 2.49 µM)	1 µg/mL (≈ 2.49 µM)
Cc1nn(-c2ccccc2)c(Oc2ccccc2)c1/C=C1\SC(=S)N([C@@H](Cc2c[nH]c3ccccc23)C(=O)O)C1=O	8 µg/mL (≈ 13.8 µM)	8 µg/mL (≈ 13.8 µM)	8 µg/mL (≈ 13.8 µM)	8 µg/mL (≈ 13.8 µM)	> 64 µg/mL	> 64 µg/mL	> 64 µg/mL	8 µg/mL (≈ 13.8 µM)
Cc1nn(-c2ccccc2)c(Oc2ccccc2Cl)c1/C=C1\SC(=S)N([C@@H](Cc2c[nH]c3ccccc23)C(=O)O)C1=O	4 µg/mL (≈ 6.5 µM)	4 µg/mL (≈ 6.5 µM)	4 µg/mL (≈ 6.5 µM)	2 µg/mL (≈ 3.25 µM)	> 64 µg/mL	> 64 µg/mL	> 64 µg/mL	4 µg/mL (≈ 6.5 µM)
Cc1nn(-c2ccccc2)c(Oc2ccccc2)c1/C=C1\SC(=S)N([C@@H](Cc2ccc(O)cc2)C(=O)O)C1=O	–	–	–	–	> 64 µg/mL	> 64 µg/mL	> 64 µg/mL	> 32 µg/mL
Cc1nn(-c2ccccc2)c(Oc2cccc(C(F)(F)F)c2)c1/C=C1\SC(=S)N([C@@H](Cc2ccc(O)cc2)C(=O)O)C1=O	32 µg/mL (≈ 51.1 µM)	32 µg/mL (≈ 51.1 µM)	16 µg/mL (≈ 25.6 µM)	16 µg/mL (≈ 25.6 µM)	> 64 µg/mL	> 64 µg/mL	> 64 µg/mL	16 µg/mL (≈ 25.6 µM)
Cc1ccc(Oc2c(/C=C3\SC(=S)N([C@@H](Cc4c[nH]c5ccccc45)C(=O)O)C3=O)c(C)nn2-c2ccccc2)cc1	4 µg/mL (≈ 6.73 µM)	4 µg/mL (≈ 6.73 µM)	2 µg/mL (≈ 3.36 µM)	2 µg/mL (≈ 3.36 µM)	> 64 µg/mL	> 64 µg/mL	> 64 µg/mL	4 µg/mL (≈ 6.73 µM)
Cc1nn(-c2ccccc2)c(Oc2ccc(F)cc2)c1/C=C1\SC(=S)N([C@@H](Cc2ccc(O)cc2)C(=O)O)C1=O	–	–	–	–	> 64 µg/mL	> 64 µg/mL	> 64 µg/mL	> 32 µg/mL
Cc1ccc(Oc2c(/C=C3\SC(=S)N([C@@H](Cc4ccc(O)cc4)C(=O)O)C3=O)c(C)nn2-c2ccccc2)c(C)c1	8 µg/mL (≈ 13.7 µM)	8 µg/mL (≈ 13.7 µM)	8 µg/mL (≈ 13.7 µM)	8 µg/mL (≈ 13.7 µM)	> 64 µg/mL	> 64 µg/mL	> 64 µg/mL	8 µg/mL (≈ 13.7 µM)
COc1ccccc1Oc1c(/C=C2\SC(=S)N([C@@H](Cc3ccc(O)cc3)C(=O)O)C2=O)c(C)nn1-c1ccccc1	–	–	–	–	> 64 µg/mL	> 64 µg/mL	> 64 µg/mL	> 32 µg/mL
Cc1nn(-c2ccccc2)c(Oc2ccc(Cl)cc2)c1/C=C1\SC(=S)N([C@@H](Cc2ccc(O)cc2)C(=O)O)C1=O	8 µg/mL (≈ 13.5 µM)	16 µg/mL (≈ 27 µM)	8 µg/mL (≈ 13.5 µM)	16 µg/mL (≈ 27 µM)	> 64 µg/mL	> 64 µg/mL	> 64 µg/mL	16 µg/mL (≈ 27 µM)
Cc1nn(-c2ccccc2)c(Oc2c(Cl)cccc2Cl)c1/C=C1\SC(=S)N([C@@H](Cc2c[nH]c3ccccc23)C(=O)O)C1=O	4 µg/mL (≈ 6.16 µM)	4 µg/mL (≈ 6.16 µM)	4 µg/mL (≈ 6.16 µM)	4 µg/mL (≈ 6.16 µM)	> 64 µg/mL	> 64 µg/mL	> 64 µg/mL	4 µg/mL (≈ 6.16 µM)
Cc1ccccc1Oc1c(/C=C2\SC(=S)N([C@@H](Cc3ccc(O)cc3)C(=O)O)C2=O)c(C)nn1-c1ccccc1	32 µg/mL (≈ 56 µM)	32 µg/mL (≈ 56 µM)	16 µg/mL (≈ 28 µM)	16 µg/mL (≈ 28 µM)	> 64 µg/mL	> 64 µg/mL	> 64 µg/mL	16 µg/mL (≈ 28 µM)
Cc1nn(-c2ccccc2)c(Oc2ccc3ccccc3c2)c1/C=C1\SC(=S)N([C@@H](Cc2ccc(O)cc2)C(=O)O)C1=O	8 µg/mL (≈ 13.2 µM)	8 µg/mL (≈ 13.2 µM)	8 µg/mL (≈ 13.2 µM)	8 µg/mL (≈ 13.2 µM)	> 64 µg/mL	> 64 µg/mL	> 64 µg/mL	8 µg/mL (≈ 13.2 µM)
Cc1nn(-c2ccccc2)c(Oc2ccc(Cl)cc2Cl)c1/C=C1\SC(=S)N([C@@H](Cc2ccc(O)cc2)C(=O)O)C1=O	8 µg/mL (≈ 12.8 µM)	8 µg/mL (≈ 12.8 µM)	8 µg/mL (≈ 12.8 µM)	8 µg/mL (≈ 12.8 µM)	> 64 µg/mL	> 64 µg/mL	> 64 µg/mL	8 µg/mL (≈ 12.8 µM)
COc1ccc(Oc2c(/C=C3\SC(=S)N([C@@H](Cc4ccc(O)cc4)C(=O)O)C3=O)c(C)nn2-c2ccccc2)cc1	–	–	–	–	> 64 µg/mL	> 64 µg/mL	> 64 µg/mL	> 32 µg/mL
